#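 1) Cells in 96-well plates. 2) Compound, 48 h, 5 concentrations. 3) Linear interpolation between surrounding doses. 4) Unreached endpoint = highest concentration. TGI marks complete inhibition of growth.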
# Key:
# Test in all cases: NCI tumour cell line growth inhibition, 48 h
# DLD-1 colon = tested on: DLD-1 colon
# LXFL 529 NSCLC = tested on: LXFL 529 NSCLC
# M19-MEL melanoma = tested on: M19-MEL melanoma
# SNB-78 CNS = tested on: SNB-78 CNS
# HOP-18 NSCLC = tested on: HOP-18 NSCLC
# DMS 114 small cell lung = tested on: DMS 114 small cell lung
# DMS 273 small cell lung = tested on: DMS 273 small cell lung
# RXF-631 renal = tested on: RXF-631 renal
# XF 498 CNS = tested on: XF 498 CNS
# P388/ADR leukemia = tested on: P388/ADR leukemia
# SN12K1 renal = tested on: SN12K1 renal
# P388 leukemia = tested on: P388 leukemia
SMILES,TGI (DLD-1 colon) [µM],TGI (LXFL 529 NSCLC) [µM],TGI (M19-MEL melanoma) [µM],TGI (SNB-78 CNS) [µM],TGI (HOP-18 NSCLC) [µM],TGI (DMS 114 small cell lung) [µM],TGI (DMS 273 small cell lung) [µM],TGI (RXF-631 renal) [µM],TGI (XF 498 CNS) [µM],TGI (P388/ADR leukemia) [µM],TGI (SN12K1 renal) [µM],TGI (P388 leukemia) [µM]
COC(=O)/C(=N\N)C(C(=O)C(=O)Nc1nc(=S)[nH][nH]1)c1nc2ccc([N+](=O)[O-])cc2[nH]c1=O (centres undefined),> 100,> 100,> 100,> 100,> 100,> 100,> 100,> 100,–,–,–,–
C/C=C1/C(=Cc2[nH]c(C=c3[nH]/c(=C/C4=NC(=O)C(CC)=C4C)c(C)c3CCC(=O)O)c(CCC(=O)O)c2C)NC(=O)C1C (centres undefined),> 50,> 50,41.6,> 50,> 50,> 50,37.1,> 50,17.5,–,–,–
COC(=O)C(=O)C(C(C)=O)C(=O)C(=O)Nc1ccc(C)cc1C (centres undefined),> 100,> 100,> 100,–,–,> 100,> 100,–,> 100,–,–,–
C/C(=N/N)c1sc(-c2nc(C)c(/C(C)=N\N)s2)nc1C,> 100,> 100,> 100,> 100,> 100,> 63.8,> 58.8,–,> 100,–,–,–
O=S(=O)(CF)OCCCCOS(=O)(=O)CF,–,> 100,> 100,> 100,> 100,> 100,> 100,> 100,–,–,–,–
COC1(C)CNCC(C)(C)NC(=O)C(C)(OC)CNCC(C)(C)NC1=O (centres undefined),> 100,> 100,> 100,> 100,> 100,> 100,> 100,> 100,–,–,–,–
CCCCCC(/C=C/c1ncccc1OCCCCCC(=O)O)=N\NC1=NCCN1,–,> 100,> 100,–,–,> 100,> 100,–,54.8,–,–,–
CCOC(=O)c1ccn2c(c1)c(C#N)c1nc3ccccc3nc12,> 100,> 100,> 100,57.6,–,> 100,> 100,–,93.3,–,–,–
N#CCCN(CCC#N)c1ccc(/C=C(/NC(=O)Nc2ccccc2Cl)NC(=O)c2cc([N+](=O)[O-])ccc2Cl)cc1,> 100,> 100,> 100,> 100,> 100,> 100,> 100,> 100,> 100,–,–,–
O=C1C2C3C=C4c5ccccc5N(c5ccccc5)C4([C@@H]2C(=O)N1c1ccc(F)cc1)[C@H]1C(=O)N(c2ccc(F)cc2)C(=O)[C@@H]31 (some centres undefined),> 100,–,> 100,> 100,> 100,> 100,–,–,> 100,–,–,–
CCCCCCCCCCCCCCCCCCOCC(O)CO (centres undefined),> 25,–,24.6,> 25,> 2.5,> 25,> 7.73,–,> 25,> 25,> 25,> 14.1
Cc1cc(C)c(C(=O)C(C)C(c2ccccc2)c2ccc(Cl)cc2)c(C)c1 (centres undefined),> 100,> 100,> 100,–,> 100,> 100,–,> 100,> 100,–,–,–
COc1cc2cnc3c4cc(OC)c(OC(C)C)cc4ccc3c2cc1OC,> 100,> 100,> 100,> 100,> 100,> 100,> 100,> 100,–,–,–,–
CCc1cccc(NC(=O)c2cc(/C=C/c3ccccc3)[nH]c(=S)n2)c1,–,> 100,> 100,> 100,> 100,> 100,> 100,–,–,–,–,–
CC(C)=CCOc1ccc(-c2coc3cc4c(c(O)c3c2=O)C=CC(C)(C)O4)cc1,> 100,> 100,> 100,> 100,–,> 100,–,–,> 100,–,–,–
CC(=O)OCC1=CC2CCC3C(C)(CCC[C@]3(C)COC(C)=O)C23CC[C@H]1C3 (some centres undefined),> 100,> 100,> 100,–,> 100,44.3,> 100,> 100,81.9,–,–,–
COc1ccc(/C=C/c2nc(=S)[nH][nH]2)cc1OC,> 100,> 100,> 100,> 100,–,> 100,> 100,–,> 100,–,–,–
Cn1c(=O)[nH]c2c(c1=O)C(=O)CN2,> 100,> 100,> 100,> 100,> 100,> 100,> 100,–,> 100,–,–,–
O=C(NCc1ccccc1)C1C(=O)C(=O)N(Cc2ccccc2)C1=O (centres undefined),> 100,> 100,> 100,> 100,> 100,–,> 100,> 100,–,–,–,–
CC1OC(CC2C=CCc3c(O)c4c(c(O)c32)C(=O)c2ccccc2C4=O)CC(NC(=O)C(F)(F)F)C1O (centres undefined),20,20.4,21.1,14.9,–,26.8,19.7,–,14.6,–,–,–
N#CCC(=O)Nc1ccccc1O,> 100,> 100,> 100,> 100,> 100,–,> 100,> 100,> 100,–,–,–
COC(=O)C(C#N)C1NC(=O)c2ccccc21 (centres undefined),> 100,–,> 100,> 100,> 100,> 100,> 100,> 100,–,–,–,–
COc1cc2c(cc1OC)[C@H]1C(COC(=O)Nc3ccccc3)CN1CC2 (some centres undefined),> 100,> 100,> 100,–,> 100,–,> 100,–,–,–,–,–
CCC(=O)CCC1=Nc2nnc(CCCCc3nnc4n3C(=O)C(CCC(=O)CC)=N4)n2C1=O,> 100,> 100,> 100,–,–,> 100,> 100,–,> 100,–,–,–
CC(O)C1OC(n2ccc(=O)[nH]c2=O)CC1n1cncn1 (centres undefined),> 100,> 100,> 100,–,–,> 100,> 100,–,> 100,–,–,–

# Source: PubChem BioAssay (NCI)
